Read-outs that look alike come from different tables or passages of the source.
Columns and labels:
[1] = Gel formation in saline solutions of NaCl; type: physicochemical; conditions: same conditions
Method: This effect is more pronounced at concentrations between 7 and 40 mg/mL at a temperature range between 20° C. and 40° C., preferably at ambient temperature. The homogeneity of the product facilitates homogeneity of dosing, i.e, variability among doses is lower, easy administration of the compound and higher patient acceptability.

A549 = experiment: Early toxicity: A549 cell growth; type: cell-based; conditions: 10 μM
HDAC6 = HDAC6 (Homo sapiens, UniProt Q9UBN7); experiment: HDAC6 activity inhibition; type: biochemical; conditions: 100 μM
[2] = test system: L. infantum (MHOM/MA/67/ITMAP-263) intracellular amastigotes; experiment: Anti-parasitic activity against L. infantum intracellular amastigotes (infection with axenic amastigotes luciferase positive); type: cell-based
CYP2C19 = CYP2C19 (Homo sapiens, UniProt P33261); experiment: Early toxicity: CYP2C19 inhibition; type: in vitro ADME; conditions: human, mean ± SD, Table 4a
[3] = test system: L. amazonensis intracellular amastigotes; experiment: Anti-leishmanial activity, L. amazonensis intracellular amastigotes; type: cell-based; conditions: Leishmania amazonensis
Text: (§1) The in vitro antiparasitic activity of compound 5-cyclopentadecylpentyl (2-(trimethylammonio)ethyl) phosphate (19) against L. infantum (2 species), L. amazonensis, L. donovani and L. major is presented in Table 3, as well as the toxicity against the human monocytic cell Line THP1 and PMA-differentiated THP-1 cells.

[4] = Apparent solubility by nephelometry; type: physicochemical; conditions: kinetic from dmso stock
Leishmania infantum = experiment: Efficacy in mice infected with Leishmania infantum, 10-day treatment; type: in vivo, BALB/c mice; conditions: 10 consecutive days
Method: (A) Experimental approach; (B) and (C) are graphic presentations of parasite burden in the spleen and the liver, respectively, evaluated by limiting dilution assay.
The treatments were reduced to 10 consecutive days at doses of 2.5, 5, 10 or 20 mg/Kg/day (FIG. 3).

T. b. brucei GVR35 = experiment: Stage II HAT mice model, live imaging; type: in vivo
[5] = test system: PMA-differentiated THP-1 cells; experiment: Toxicity MTT assay in PMA-differentiated THP-1 cells; type: cell-based, human
Text: (§2) The in vitro antiparasitic activity against L. infantum (MHOM/MA/67/ITMAP-263) and the toxicity against THP-1 macrophages is presented in Table 1.

[6] = as above; type: cell-based, human; conditions: human, PMA-differentiated THP-1 cells (macrophages)
Text: as §2

[7] = test system: L. major SASKH intracellular amastigotes; experiment: Anti-leishmanial activity, L. major intracellular amastigotes; type: cell-based; conditions: Leishmania major; read-out: L. major SASKH intracellular amastigotes IC50 ± SEM
Text: as §1

[8] = test system: L. donovani 1SR intracellular amastigotes; experiment: Anti-leishmanial activity, L. donovani intracellular amastigotes; type: cell-based; conditions: Leishmania donovani; read-out: L. donovani 1SR intracellular amastigotes IC50 ± SEM
Text: as §1

[9] = Cytotoxicity, Human Monocytic Cell Line THP1; type: cell-based; conditions: human monocytic cell line THP1, read-out: Cytotoxicity-Human Monocytic Cell Line THP1 CC50 ± SD
Text: as §1

[10] = test system: L. infantum intracellular amastigotes LEM235; experiment: Anti-leishmanial activity, L. infantum LEM235 intracellular amastigotes; type: cell-based
Text: as §1

mitochondria = experiment: Early toxicity: mitochondrial toxicity; type: cell-based; conditions: 10 μM
[11] = Snapshot pharmacokinetics in plasma after oral gavage; type: in vivo, mice; conditions: for AUC(0-inf) / Cmax / half-life / Tmax: mouse, plasma; for Tmax: read-out: tmax
CYP1A2 = target: T1, CYP1A2 (Homo sapiens, UniProt P05177); experiment: Early toxicity: CYP1A2 inhibition; type: in vitro ADME; conditions: human, mean ± SD, Table 4a
T1 sequence (P05177 1-516): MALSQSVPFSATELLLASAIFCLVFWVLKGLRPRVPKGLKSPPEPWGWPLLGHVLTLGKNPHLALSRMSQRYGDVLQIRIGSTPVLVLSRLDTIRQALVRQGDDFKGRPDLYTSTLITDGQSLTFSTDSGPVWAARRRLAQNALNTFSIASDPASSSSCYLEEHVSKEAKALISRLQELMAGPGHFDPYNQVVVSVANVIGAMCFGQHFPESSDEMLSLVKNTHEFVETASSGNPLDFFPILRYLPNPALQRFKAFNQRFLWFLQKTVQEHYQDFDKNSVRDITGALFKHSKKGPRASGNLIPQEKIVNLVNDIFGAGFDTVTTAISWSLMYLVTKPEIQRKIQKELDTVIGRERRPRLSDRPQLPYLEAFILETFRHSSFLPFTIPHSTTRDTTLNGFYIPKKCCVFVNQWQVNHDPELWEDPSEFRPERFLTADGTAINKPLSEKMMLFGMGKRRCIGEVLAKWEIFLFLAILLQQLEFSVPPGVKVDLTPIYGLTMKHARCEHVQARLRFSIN

CYP2C9 = CYP2C9 (Homo sapiens, UniProt P11712); experiment: Early toxicity: CYP2C9 inhibition; type: in vitro ADME; conditions: human, mean ± SD, Table 4a
CYP2C9, sequence (P11712 whole entry): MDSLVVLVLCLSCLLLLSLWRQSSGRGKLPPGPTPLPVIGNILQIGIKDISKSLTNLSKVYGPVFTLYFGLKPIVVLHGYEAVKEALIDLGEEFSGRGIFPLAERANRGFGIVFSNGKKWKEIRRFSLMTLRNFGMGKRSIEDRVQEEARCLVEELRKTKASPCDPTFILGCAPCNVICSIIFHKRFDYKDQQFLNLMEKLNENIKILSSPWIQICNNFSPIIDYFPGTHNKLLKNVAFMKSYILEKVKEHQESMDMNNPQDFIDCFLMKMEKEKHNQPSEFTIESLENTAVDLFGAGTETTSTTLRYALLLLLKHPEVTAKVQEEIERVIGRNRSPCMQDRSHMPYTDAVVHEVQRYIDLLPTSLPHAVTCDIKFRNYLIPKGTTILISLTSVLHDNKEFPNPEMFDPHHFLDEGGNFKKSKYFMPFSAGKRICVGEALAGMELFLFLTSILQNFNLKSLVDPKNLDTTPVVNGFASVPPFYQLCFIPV

HDAC6, sequence (Q9UBN7 whole entry, species assumed): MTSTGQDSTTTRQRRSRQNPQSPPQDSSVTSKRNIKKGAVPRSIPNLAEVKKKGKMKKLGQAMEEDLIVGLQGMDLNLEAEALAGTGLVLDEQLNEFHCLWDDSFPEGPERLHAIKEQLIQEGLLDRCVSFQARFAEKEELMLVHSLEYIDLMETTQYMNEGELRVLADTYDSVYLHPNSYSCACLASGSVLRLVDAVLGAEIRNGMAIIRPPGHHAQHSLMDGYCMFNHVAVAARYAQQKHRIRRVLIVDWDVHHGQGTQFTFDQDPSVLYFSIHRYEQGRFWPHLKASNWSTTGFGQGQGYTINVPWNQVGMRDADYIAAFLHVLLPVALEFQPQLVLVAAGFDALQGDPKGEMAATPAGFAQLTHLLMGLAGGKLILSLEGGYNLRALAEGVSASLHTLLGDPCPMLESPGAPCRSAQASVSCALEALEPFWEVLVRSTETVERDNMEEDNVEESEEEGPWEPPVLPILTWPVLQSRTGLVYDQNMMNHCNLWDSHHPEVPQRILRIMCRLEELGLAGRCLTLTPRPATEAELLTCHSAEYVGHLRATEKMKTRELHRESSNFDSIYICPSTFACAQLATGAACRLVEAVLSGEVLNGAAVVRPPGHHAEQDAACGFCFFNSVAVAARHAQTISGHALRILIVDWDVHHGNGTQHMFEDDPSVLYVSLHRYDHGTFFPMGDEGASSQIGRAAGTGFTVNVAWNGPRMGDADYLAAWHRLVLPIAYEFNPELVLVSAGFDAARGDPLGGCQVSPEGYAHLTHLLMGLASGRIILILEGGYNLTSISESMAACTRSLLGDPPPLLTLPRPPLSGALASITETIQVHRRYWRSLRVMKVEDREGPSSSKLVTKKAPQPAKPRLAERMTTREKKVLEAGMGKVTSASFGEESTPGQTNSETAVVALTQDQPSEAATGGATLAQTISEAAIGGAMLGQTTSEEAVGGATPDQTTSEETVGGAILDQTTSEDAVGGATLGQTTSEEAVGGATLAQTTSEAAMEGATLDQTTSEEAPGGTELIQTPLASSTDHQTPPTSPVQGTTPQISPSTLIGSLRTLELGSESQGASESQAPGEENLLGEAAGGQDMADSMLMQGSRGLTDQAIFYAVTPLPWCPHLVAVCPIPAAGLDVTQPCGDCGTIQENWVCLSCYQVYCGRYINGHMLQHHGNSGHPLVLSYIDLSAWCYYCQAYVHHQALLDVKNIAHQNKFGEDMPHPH
CYP2C19, sequence (P33261 whole entry): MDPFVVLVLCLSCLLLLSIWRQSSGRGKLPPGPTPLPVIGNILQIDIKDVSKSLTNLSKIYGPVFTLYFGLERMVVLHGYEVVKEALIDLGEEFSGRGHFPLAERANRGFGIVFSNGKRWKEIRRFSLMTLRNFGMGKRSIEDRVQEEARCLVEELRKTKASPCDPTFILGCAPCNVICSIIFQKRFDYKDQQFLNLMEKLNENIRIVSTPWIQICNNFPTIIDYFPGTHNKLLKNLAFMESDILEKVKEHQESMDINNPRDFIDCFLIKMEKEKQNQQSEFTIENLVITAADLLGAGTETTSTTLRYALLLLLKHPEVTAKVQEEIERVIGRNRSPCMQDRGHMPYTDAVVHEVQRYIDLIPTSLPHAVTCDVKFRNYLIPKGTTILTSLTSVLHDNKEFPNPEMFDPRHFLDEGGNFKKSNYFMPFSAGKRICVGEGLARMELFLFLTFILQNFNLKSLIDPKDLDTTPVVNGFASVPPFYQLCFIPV

C[N+](C)(C)CCOP(=O)([O-])OCCCCCC1CCCCCCCCCCCCCC1 [Compound 19, 5-cyclopentadecylpentyl (2-(trimethylammonio)ethyl) phosphate]
gel formation [1]: homogeneous gel product | % cell growth A549 (A549; 100% = not cytotoxic, 0% = cytostatic, −100% = cytotoxic): 108.28 ± 0.09% | Avg % Cell growth A549 (A549; Table 5): 108.28 ± 0.09 (10 μM) % | inhibition of the activity of HDAC6 (HDAC6): does not inhibit | inhibition at 10 µM ([2]; Leishmania infantum, 10 μM, Table 1, read-out: Single Dose Assay 10 μM Mean Inhibitory Activity (%) ± SD): 78 ± 2% | IC50 ([2]; Leishmania infantum, Table 1, read-out: Dose Response Curves IC50 ± SD): 1.4 ± 0.1 µM | IC50 ([2]; Leishmania infantum, Table 3, read-out: L. infantum intracellular amastigotes (MHOM/MA/67/ITMAP-263) IC50 ± SEM): 1.4 ± 0.1 µM | Selectivity Index CC50/IC50 or NOAEL/IC50 ([2]; PMA-differentiated THP-1 CC50 / IC50 L. infantum MHOM/MA/67/ITMAP-263, Table 3): >71 | Selectivity Index CC50/IC50 or NOAEL/IC50 ([2]; THP-1 toxicity / L. infantum IC50, Table 1): >71 | inhibition at 10 µM (CYP2C19): -18.2 ± 7.01% | IC50 [3]: 5.4 µM | solubility ([4]; FaSSIF, pH 6.5, fassif, read-out: Solubility in FaSSIF (pH = 6.5)): > 100 µM | solubility ([4]; FeSSIF, pH 5, fessif, read-out: Solubility in FeSSIF (pH = 5)): > 100 µM | solubility ([4]; PBS, pH 7.4, aqueous buffer, read-out: Solubility in PBS (pH = 7.4)): < 10 µM | solubility ([4]; simulated gastric fluid (SGF), simulated gastric fluid, SGF, pH 1.6, read-out: Solubility in SGF (pH = 1.6)): 12.5 µM | solubility ([4]; water, H2O, read-out: Solubility in H2O): < 10 µM | reduction of parasite burden, spleen (Leishmania infantum; 2.5 mg/kg): 91±6% | reduction of parasite burden, spleen (Leishmania infantum; 5 mg/kg): 99±1% | parasite burden in the spleen (Leishmania infantum; 20 mg/kg and 10 mg/kg): able to maintain parasite burden below the detection limit | parasite load in the liver (Leishmania infantum; all treatments (20, 10, 5, 2.5 mg/kg)): maintained the parasite load under the detection limit | average reduction of signal (average radiance) in the brain region (T. b. brucei GVR35; 50 mg/kg daily for 13 days, compared to beginning of treatment (day 21)): 99.96% | reduction of infection (T. b. brucei GVR35; 50 mg/kg/day PO, 13 days): > 99% | signal in the region of the brain lost (T. b. brucei GVR35; after 4 treatments (day 25), 50 mg/kg daily): 99.95% | overall and brain infection (T. b. brucei GVR35; compound 19 50 mg/kg/day PO): able to significantly reduce the overall infection and also in the brain | CC50 ([5]; MTT assay in PMA-differentiated THP-1 cells, Table 3, read-out: Toxicity CC50 ± SD): > 100 µM | CC50 ([5]; Table 2, read-out: Toxicity CC50 ± SD or NOAEL): > 100 µM | Toxicity MTT assay in PMA-differentiated THP-1 cells ([5]; Table 5): >100 µM | CC50 ([6]; THP-1 macrophages, Table 1, read-out: Toxicity CC50 ± SD or NOAEL): > 100 µM | IC50 ([6]; Table 4b, read-out: Cytotoxicity THP-1 (IC50)): > 100 µM | IC50 [7]: 15.5 ± 1.5 µM | IC50 [8]: 24 ± 3.8 µM | CC50 [9]: > 500 µM | IC50 ([10]; Leishmania infantum, read-out: L. infantum intracellular amastigotes LEM235 IC50 ± SEM): 0.7 ± 0.4 µM | Selectivity Index CC50/IC50 ([10]; THP1 CC50 / IC50 L. infantum LEM235): 714 | % mitochondrial toxicity (mitochondria; 100% mitotoxic, 0% not mitotoxic): −3.22 ± 5.44% | Ang % Toxicity Mitochondria (mitochondria; Table 5): −3.22 ± 5.44 (10 μM) % | Cmax in plasma relative to the EC50 for L. infantum in vitro ([11]; 20 mg/kg oral gavage): 10 fold | AUC(0-inf) ([11]; BALB/c (Compound 19), NMRI (miltefosine), healthy mice, 20 mg/kg oral gavage, Table 10, read-out: AUC (0-∞)): 967 ± 471 µg·h/mL | AUC(0-inf) ([11]; BALB/c (Compound 19), NMRI (miltefosine), healthy mice, 20 mg/kg oral gavage, Table 10, read-out: AUC (0-∞) (μM h/mL)): 2090 µM·h | Cmax ([11]; BALB/c (Compound 19), NMRI (miltefosine), healthy mice, 20 mg/kg oral gavage, Table 10, read-out: Cmax): 33.4 µM | Cmax ([11]; BALB/c (Compound 19), NMRI (miltefosine), healthy mice, 20 mg/kg oral gavage, Table 10, read-out: Cmax (μg/mL)): 15.4 ± 9.3 µg/mL | half-life ([11]; BALB/c (Compound 19), NMRI (miltefosine), healthy mice, 20 mg/kg oral gavage, Table 10, read-out: t1/2 (converted)): 17.4 ± 4.2 h | Tmax ([11]; BALB/c (Compound 19), NMRI (miltefosine), healthy mice, 20 mg/kg oral gavage, Table 10): 24 h | Ke (h − 1) ([11]; healthy BALB/c mice, 20 mg/kg gavage, Table 13): 0.049 h − 1 | Ke ([11]; healthy mice, 20 mg/kg oral gavage, Table 10): 0.049 h⁻¹ | AUC(0-inf) ([11]; po, healthy BALB/c mice, 20 mg/kg gavage, Table 13, read-out: AUC (0-∞)): 967 ± 471 µg·h/mL | AUC(0-inf) ([11]; po, healthy BALB/c mice, 20 mg/kg gavage, Table 13, read-out: AUC (0-∞) (μM h/mL)): 2090 µM·h | Cmax ([11]; po, healthy BALB/c mice, 20 mg/kg gavage, Table 13, read-out: Cmax): 33.4 µM | Cmax ([11]; po, healthy BALB/c mice, 20 mg/kg gavage, Table 13, read-out: Cmax (μg/mL)): 15.4 ± 9.3 µg/mL | Tmax ([11]; po, healthy BALB/c mice, 20 mg/kg gavage, Table 13): 24 h | half-life ([11]; po, healthy BALB/c mice, 20 mg/kg gavage, Table 13, read-out: t½ (converted)): 17.4 ± 4.2 h | inhibition at 10 µM (CYP1A2): -32.1 ± 9.3% | inhibition at 10 µM (CYP2C9): -17.5 ± 2.31%

Source: patent US20230365602A1, “COMPOUND FOR USE IN THE TREATMENT OF PROTOZOAL DISEASES AND PROCESS FOR PRODUCTION OF SAID COMPOUND” (QUADREL S.R.L., priority 2020, published 2023)
